From ChEMBL document CHEMBL1201862, “PubChem BioAssay data set” (2004)
Active and inactive are the calls of the source.

Tests used:
[1] = target: T1, Orexin/Hypocretin receptor type 1 (Homo sapiens, UniProt O43613); assay: Homogeneous Time Resolved Fluorescence (HTRF)-based cell-based high throughput dose response assay for antagonists of the orexin 1 receptor (OX1R; HCRTR1). [Related pubchem assays (depositor defined):AID434989, AID435008, AID463079, AID485270, AID492963, AID492964, AID492965, AID493232, AID504717, AID504718]; assay type: functional
T1 sequence (O43613 whole entry): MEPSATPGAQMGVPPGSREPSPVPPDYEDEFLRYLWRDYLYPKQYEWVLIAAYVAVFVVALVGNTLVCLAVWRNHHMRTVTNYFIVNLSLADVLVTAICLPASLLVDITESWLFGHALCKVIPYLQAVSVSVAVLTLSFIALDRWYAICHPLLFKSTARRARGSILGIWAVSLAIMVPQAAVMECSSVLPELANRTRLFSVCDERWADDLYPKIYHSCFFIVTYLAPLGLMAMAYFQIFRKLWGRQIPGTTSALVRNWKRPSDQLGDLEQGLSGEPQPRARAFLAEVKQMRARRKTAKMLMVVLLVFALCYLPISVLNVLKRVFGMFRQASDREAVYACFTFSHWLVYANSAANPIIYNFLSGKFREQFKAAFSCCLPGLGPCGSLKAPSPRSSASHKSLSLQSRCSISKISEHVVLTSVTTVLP

[2] = (§1) Counterscreen for antagonists of the orexin 1 receptor (OX1R; HCRTR1): Fluorescence-based cell-based high throughput dose response assay to identify antagonists of the parental CHO cell line. [Related pubchem assays (depositor defined):AID434989, AID435008, AID463079, AID485270, AID492963, AID492964, AID492965, AID493232, AID504699, AID504701]; assay type: functional
[3] = target: T1, Orexin/Hypocretin receptor type 1; assay: Fluorescence-based cell-based high throughput dose response assay for antagonists of the orexin 1 receptor (OX1R; HCRTR1). [Related pubchem assays (depositor defined):AID434989, AID435008, AID463079, AID485270, AID492963, AID492964, AID492965, AID493232, AID504717, AID504718]; assay type: functional
[4] = test system: CHO-K1; assay: as §1, with “Homogeneous time resolved fluorescence (HTRF)-based” for “Fluorescence-based”, “cell-based” for “cell-based high throughput”, “CHO-K1” for “CHO”; assay type: functional; conditions: Cricetulus griseus;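 further: potency for inhibition of ATP-stimulated IP1 production as antagonists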
[5] = target: T2, Orexin receptor type 2 (Homo sapiens, UniProt O43614); assay: Counterscreen assay for antagonists of the orexin 1 receptor (OX1R; HCRTR1): Homogeneous Time Resolved Fluorescence (HTRF)-based cell-based dose response assay for antagonists of the orexin 2 receptor (OX2R; HCRTR2), run by assay provider.; assay type: functional
T2 sequence (O43614 whole entry): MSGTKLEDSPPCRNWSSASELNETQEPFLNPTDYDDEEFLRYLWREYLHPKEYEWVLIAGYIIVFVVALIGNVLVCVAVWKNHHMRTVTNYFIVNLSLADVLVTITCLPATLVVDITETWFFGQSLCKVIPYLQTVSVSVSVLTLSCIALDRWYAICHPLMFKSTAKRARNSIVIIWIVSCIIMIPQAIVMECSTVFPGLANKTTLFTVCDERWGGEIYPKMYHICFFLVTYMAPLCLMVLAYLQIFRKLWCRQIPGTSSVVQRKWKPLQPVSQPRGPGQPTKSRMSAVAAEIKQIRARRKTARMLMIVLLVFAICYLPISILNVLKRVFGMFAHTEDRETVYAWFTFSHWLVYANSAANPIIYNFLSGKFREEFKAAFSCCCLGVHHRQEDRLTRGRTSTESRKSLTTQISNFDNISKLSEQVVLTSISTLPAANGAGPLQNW

[6] = target: T2, Orexin receptor type 2; assay: Counterscreen assay for antagonists of the orexin 1 receptor (OX1R; HCRTR1): Fluorescence-based cell-based dose response assay for antagonists of the orexin 2 receptor (OX2R; HCRTR2), run by assay provider.; assay type: functional
[7] = target: Prothrombin (Bos taurus, UniProt P00735); assay: thrombin protease inhibitors – biochemical, fluorescence polarization, uHTS hits, dose response (AID 602369); assay type: functional
[8] = target: 26S proteasome non-ATPase regulatory subunit 14 (Homo sapiens, UniProt O00487); assay: inhibition of proteasome subunit RPN11 – biochemical, fluorescence polarization, uHTS hits, confirmation (AID 602368); assay type: functional
Chain of 26S proteasome non-ATPase regulatory subunit 14 (O00487 whole entry): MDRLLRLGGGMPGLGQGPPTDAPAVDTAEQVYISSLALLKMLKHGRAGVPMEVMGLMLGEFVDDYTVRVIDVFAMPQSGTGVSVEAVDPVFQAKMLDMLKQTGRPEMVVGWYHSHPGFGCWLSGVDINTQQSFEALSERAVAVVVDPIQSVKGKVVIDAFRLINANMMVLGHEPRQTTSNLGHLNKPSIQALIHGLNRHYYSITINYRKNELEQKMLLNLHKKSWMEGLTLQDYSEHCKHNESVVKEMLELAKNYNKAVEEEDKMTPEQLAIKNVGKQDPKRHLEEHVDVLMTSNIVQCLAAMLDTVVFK

[9] = target: 72 kDa type IV collagenase (Homo sapiens, UniProt P08253); assay: Dose Response validation of uHTS RPN11 inhibitor hits using a MMP-2 Fluorescence assay.; assay type: functional
Chain of 72 kDa type IV collagenase (P08253 whole entry): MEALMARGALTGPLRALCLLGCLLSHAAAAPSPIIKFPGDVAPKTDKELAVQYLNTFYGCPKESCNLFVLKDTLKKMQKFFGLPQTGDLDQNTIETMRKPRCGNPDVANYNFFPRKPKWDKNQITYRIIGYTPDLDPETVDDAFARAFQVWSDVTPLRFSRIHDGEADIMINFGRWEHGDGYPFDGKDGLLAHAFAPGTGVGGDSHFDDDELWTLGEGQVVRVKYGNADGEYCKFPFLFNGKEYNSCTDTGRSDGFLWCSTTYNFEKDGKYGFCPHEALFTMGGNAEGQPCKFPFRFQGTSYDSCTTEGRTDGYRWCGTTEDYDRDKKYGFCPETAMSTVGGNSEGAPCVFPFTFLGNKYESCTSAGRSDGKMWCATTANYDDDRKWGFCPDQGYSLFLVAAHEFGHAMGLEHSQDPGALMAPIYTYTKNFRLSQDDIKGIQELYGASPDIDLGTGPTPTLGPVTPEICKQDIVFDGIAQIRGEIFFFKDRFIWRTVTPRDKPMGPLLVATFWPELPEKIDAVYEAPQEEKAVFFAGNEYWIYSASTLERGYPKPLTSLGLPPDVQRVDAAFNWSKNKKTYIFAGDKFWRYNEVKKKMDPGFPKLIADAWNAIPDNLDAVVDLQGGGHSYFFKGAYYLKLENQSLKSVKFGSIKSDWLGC

[10] = test system: HEK293; assay: membrane integrity loss in HEK cells – cell-based, fluorescence, cytotoxicity control for IDE activator project, dose response (AID 588440); assay type: functional; conditions: Homo sapiens;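 further: cytotoxicity by LDH release measuring loss of membrane integrity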
[11] = target: T3, Insulin-degrading enzyme (Homo sapiens, UniProt P14735); assay: cellular IDE activation of Abeta substrate cleavage – fluorescence polarization, HEK cells, dose response (AID 588439); assay type: functional, cell-based
T3 sequence (P14735 whole entry): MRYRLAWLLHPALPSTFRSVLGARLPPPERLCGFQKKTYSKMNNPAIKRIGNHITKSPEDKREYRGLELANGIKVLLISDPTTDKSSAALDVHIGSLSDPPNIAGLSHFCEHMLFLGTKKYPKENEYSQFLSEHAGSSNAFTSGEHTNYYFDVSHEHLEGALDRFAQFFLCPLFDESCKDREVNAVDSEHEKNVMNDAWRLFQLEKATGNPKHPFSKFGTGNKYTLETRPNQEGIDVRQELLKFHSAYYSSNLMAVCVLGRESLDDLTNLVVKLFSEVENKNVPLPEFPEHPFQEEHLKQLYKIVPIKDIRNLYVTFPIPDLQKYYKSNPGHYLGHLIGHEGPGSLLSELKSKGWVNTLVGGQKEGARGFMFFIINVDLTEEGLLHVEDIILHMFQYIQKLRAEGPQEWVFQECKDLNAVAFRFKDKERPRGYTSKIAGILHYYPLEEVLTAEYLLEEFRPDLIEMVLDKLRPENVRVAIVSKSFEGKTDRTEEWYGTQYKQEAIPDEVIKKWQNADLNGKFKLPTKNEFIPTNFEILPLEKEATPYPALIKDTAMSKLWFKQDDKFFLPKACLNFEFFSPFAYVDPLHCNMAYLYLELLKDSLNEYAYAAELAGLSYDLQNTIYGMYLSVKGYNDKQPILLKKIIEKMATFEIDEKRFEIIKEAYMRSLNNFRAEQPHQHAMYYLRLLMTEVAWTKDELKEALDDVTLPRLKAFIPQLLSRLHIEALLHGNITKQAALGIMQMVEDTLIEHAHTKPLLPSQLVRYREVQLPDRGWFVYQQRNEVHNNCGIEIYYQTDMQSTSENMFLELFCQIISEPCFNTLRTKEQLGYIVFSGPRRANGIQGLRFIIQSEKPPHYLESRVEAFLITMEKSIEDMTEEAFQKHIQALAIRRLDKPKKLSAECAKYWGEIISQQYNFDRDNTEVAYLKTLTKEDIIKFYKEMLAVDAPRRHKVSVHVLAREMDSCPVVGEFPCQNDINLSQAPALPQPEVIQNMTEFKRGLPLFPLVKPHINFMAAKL

[12] = test system: HEK293; assay: optical interference in Abeta FP readout, dose response, artefact control for IDE activator project, biochemical, fluorescence polarization (AID 588442); assay type: functional, cell-based; conditions: Homo sapiens
[13] = target: T3, Insulin-degrading enzyme; assay: recombinant IDE activation, cell-free – biochemical, fluorescence polarization, counter-screen for IDE activator project, dose response (AID 588681)
[14] = target: Keap1/Nrf2 (Homo sapiens, UniProt Q14145); assay: disruptors of Keap1 binding to Nrf2 peptide – biochemical, fluorescence polarization, cherry-picked samples, dose response (AID 588683)
Chain of Keap1/Nrf2 (Q16236 whole entry, the tested form may be a part): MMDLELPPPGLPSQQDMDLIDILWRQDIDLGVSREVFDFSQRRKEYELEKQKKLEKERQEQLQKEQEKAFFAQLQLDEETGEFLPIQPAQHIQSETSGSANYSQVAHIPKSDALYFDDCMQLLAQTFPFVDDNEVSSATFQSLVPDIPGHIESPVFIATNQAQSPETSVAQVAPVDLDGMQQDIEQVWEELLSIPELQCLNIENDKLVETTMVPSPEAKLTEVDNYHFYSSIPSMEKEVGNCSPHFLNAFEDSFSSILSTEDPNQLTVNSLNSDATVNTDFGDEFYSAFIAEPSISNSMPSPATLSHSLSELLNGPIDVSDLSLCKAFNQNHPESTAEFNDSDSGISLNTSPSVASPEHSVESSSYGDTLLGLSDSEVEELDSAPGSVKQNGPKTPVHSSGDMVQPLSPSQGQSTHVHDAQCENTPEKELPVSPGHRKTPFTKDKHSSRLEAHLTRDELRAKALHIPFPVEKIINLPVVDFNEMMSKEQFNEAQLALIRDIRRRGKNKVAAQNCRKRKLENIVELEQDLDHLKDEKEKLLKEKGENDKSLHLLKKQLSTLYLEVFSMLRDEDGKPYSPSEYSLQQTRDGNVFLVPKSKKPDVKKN
Chain of Keap1/Nrf2 (Q14145 whole entry, the tested form may be a part): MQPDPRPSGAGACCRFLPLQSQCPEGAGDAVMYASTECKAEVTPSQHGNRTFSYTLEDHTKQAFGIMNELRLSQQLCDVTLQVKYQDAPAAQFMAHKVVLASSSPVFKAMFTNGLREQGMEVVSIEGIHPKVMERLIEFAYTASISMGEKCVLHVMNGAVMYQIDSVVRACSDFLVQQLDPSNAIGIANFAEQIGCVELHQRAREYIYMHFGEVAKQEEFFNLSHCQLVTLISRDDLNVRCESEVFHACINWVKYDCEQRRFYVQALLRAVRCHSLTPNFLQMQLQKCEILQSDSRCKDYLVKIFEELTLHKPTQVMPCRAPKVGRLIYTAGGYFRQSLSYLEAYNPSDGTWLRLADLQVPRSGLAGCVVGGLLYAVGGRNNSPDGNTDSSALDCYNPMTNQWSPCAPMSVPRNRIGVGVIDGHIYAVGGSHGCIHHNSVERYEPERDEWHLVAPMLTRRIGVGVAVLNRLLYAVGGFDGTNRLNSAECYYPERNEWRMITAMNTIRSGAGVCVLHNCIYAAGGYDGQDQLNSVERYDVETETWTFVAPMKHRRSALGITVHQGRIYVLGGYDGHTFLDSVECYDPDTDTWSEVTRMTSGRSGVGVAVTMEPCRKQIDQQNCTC

[15] = target: T4, RNA-binding protein pos-1 (Caenorhabditis elegans, UniProt G5EF15); assay: disruptors of C. elegans POS-1 RNA interaction – biochemical, fluorescence polarization, dose response (AID 1964);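 further: purified POS-1 fused to maltose binding protein made in E. coli; potency of compounds blocking POS-1 binding to fluorescent RNA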
T4 sequence (G5EF15 whole entry): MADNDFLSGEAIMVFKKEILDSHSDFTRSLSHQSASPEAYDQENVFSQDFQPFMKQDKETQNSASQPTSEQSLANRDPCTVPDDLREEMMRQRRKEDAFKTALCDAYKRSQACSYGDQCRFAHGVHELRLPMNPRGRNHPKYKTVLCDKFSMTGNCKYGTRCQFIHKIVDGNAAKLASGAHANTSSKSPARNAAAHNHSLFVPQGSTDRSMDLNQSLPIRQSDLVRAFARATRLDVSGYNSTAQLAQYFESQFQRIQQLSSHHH

[16] = target: T5, ORF 73 (Human herpesvirus 8, UniProt O40947); assay: KSHV LANA DNA-binding disruption – biochemical, fluorescence polarization, cherry-picked samples, dose response (AID 504725); parameters: species or system Human gammaherpesvirus 8;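 further: fluorescence polarization of a labeled DNA duplex reporting LANA DNA binding; potency is for inhibitors that block LANA binding to the DNA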
T5 sequence (O40947 whole entry): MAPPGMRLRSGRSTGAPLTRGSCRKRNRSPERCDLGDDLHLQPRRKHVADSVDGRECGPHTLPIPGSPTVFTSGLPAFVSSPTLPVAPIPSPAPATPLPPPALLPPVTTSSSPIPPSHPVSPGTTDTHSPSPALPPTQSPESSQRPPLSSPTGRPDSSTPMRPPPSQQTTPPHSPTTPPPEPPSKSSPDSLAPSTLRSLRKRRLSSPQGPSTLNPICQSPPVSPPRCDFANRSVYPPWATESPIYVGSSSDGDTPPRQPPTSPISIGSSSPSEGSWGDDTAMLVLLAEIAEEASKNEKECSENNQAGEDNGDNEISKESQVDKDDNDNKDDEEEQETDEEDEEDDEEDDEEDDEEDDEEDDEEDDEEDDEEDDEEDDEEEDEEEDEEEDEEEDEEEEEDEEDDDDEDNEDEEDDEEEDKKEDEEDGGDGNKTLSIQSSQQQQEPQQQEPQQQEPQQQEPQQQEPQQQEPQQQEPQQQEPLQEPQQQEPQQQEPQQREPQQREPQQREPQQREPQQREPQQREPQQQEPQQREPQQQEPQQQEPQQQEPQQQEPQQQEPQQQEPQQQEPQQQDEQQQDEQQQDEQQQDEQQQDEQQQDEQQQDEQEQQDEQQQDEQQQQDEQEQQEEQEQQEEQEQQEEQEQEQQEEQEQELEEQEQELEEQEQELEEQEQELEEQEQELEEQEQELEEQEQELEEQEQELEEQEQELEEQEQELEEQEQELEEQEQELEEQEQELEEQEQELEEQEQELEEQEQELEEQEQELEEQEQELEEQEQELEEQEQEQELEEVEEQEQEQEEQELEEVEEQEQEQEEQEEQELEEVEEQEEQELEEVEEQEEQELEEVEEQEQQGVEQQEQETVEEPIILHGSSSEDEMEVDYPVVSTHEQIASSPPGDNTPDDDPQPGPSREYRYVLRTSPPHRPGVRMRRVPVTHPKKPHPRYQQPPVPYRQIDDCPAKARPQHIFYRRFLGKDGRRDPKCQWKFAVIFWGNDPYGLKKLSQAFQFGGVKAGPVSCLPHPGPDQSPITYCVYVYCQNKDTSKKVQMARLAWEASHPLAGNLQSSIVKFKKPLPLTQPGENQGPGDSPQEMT

[17] = target: UDP-galactopyranose mutase (Mycobacterium tuberculosis, UniProt P9WIQ1); assay: Inhibitors of Mycobacterium tuberculosis UDP-galactopyranose mutase (UGM) enzyme Measured in Biochemical System Using Plate Reader - 2105-02_Inhibitor_Dose_CherryPick_Activity. [Related pubchem assays (depositor defined):AID504439]
Chain of UDP-galactopyranose mutase (P9WIQ1 whole entry): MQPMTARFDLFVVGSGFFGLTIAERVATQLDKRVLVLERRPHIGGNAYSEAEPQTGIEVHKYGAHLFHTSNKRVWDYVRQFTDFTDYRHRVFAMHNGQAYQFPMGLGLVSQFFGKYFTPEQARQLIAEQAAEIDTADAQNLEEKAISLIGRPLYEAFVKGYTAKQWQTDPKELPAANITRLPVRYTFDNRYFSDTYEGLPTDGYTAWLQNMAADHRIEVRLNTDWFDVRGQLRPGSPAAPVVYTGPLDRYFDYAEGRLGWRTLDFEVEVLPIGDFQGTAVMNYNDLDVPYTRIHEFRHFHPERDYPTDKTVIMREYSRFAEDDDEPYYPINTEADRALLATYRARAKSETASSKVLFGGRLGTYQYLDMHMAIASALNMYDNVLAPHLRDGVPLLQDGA

[18] = target: T6, Zinc finger protein mex-5 (Caenorhabditis elegans, UniProt Q9XUB2); assay: potency of MEX-5 RNA-binding blockers – biochemical, C. elegans, fluorescence polarization, dose response (AID 1960)
T6 sequence (Q9XUB2 whole entry): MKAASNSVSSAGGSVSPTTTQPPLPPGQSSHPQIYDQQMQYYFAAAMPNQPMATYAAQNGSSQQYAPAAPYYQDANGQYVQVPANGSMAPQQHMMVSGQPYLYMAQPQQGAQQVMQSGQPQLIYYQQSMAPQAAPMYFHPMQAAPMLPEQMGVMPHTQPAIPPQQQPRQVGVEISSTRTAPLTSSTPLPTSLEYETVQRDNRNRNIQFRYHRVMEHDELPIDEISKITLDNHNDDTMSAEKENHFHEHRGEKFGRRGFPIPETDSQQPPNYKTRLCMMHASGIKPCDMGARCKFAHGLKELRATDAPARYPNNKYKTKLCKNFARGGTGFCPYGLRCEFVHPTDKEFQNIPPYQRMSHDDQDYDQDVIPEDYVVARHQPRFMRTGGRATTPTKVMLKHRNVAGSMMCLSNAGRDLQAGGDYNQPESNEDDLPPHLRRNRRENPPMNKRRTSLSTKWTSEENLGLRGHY

Row | Structure (SMILES) | IC50 [1] | IC50 [2] | IC50 [3] | IC50 [4] | IC50 [5] | IC50 [6] | IC50 [10] | EC50 [11] | EC50 [12] | EC50 [13] | also measured
1 | O=c1c2ccccc2nc2c3ccccc3c(NCc3ccccn3)nn12 | 4.96 µM (active) | > 49.7 µM (inactive) | 16.7 µM (inactive) | > 66.2 µM (inactive) | > 50 µM (inactive) | > 88.8 µM (inactive) | – | – | – | – | –
2 | Cc1cc(C)c2cc3c(N)c(C(=O)Nc4c(C)nc(O)nc4O)sc3nc2c1 | – | – | – | – | – | – | – | – | – | – | IC50 [7]: 15.5 µM (active); IC50 [8]: 13.2 µM (active); IC50 [9]: > 100 µM (inactive)
3 | COc1cc(CNC2CCCC2)cc(OC)c1OC | – | – | – | – | – | – | > 89.1 µM (inactive) | > 54.7 µM (inactive) | > 54.7 µM (inactive) | > 54.7 µM (inactive) | –
4 | COc1ccc(NC(=O)NS(=O)(=O)c2ccc(C)cc2)cn1 | – | – | – | – | – | – | > 89.2 µM (inactive) | > 54.7 µM (inactive) | > 55.9 µM (inactive) | > 54.7 µM (inactive) | AC50 [14]: > 52 µM (inactive); EC50 [15]: 2.37 µM (inconclusive); AC50 [16]: 87.5 µM (active); AC50 [17]: 90.9 µM (active); EC50 [18]: 2.38 µM (inconclusive)
5 | Cc1ccsc1/C=N/N=C1\C(=O)Nc2ccccc21 | 2.36 µM (active) | > 49.7 µM (inactive) | 8.44 µM (active) | 46.8 µM (inactive) | > 50 µM (inactive) | > 88.8 µM (inactive) | – | – | – | – | –
